Experimental data published in US7534814B2, “Mutilin derivatives and their use as antibacterials” (Nabriva Therapeutics AG, priority 1999, dated 2009).
≈ marks a conversion by molar mass, not a printed value. Read-outs that look alike come from different tables or passages of the source. Blank lines part the entries; values can stand above or below the molecule they belong to.

Columns and labels:
Assay type in all cases: cell-based
[1] = tested on: Staphylococcus aureus MSSA; assay: MIC in Agar Dilution Test or Micro Dilution Test (NCCLS M7-A4); settings: examples tested in the form of a hydrochloride
Source text: (§1) For example, the active compounds of the present invention show antimicrobial, e.g. antibacterial activity against gram negative bacterias, such as Escherichia coli; and against gram positive bacteria, such as Staphylococcus aureus, Streptococcus pyogenes, Streptococcus pneumonlae, Mycoplasms, Chlamydia and obligatory anaerobes, e.g. Bacteroides fragilis; in vitro in the Agar Dilution Test or Microdilution Test according to National Commitee for Clinical Laboratory Standards (NCCLS) 1997, Document M7-A4 Vol.17, No. 2: “Methods for dilution Antimicrobial Susceptibility Tests for Bacteria that Grow Aerobically—Fourth Edition, Approved Standard”; and e.g. in vivo in systemic infections in mice.
(§2) The active compounds of the invention show an surprising overall activity spectrum. For example, it has been determined that the active compounds of the present invention show surprising activity in vitro against Enterococcus faecium, including vancomycin-resistant strains; against Staphylococcus aureus including methicillin sensitive (MSSA) and methicdllin-resistant (MRSA) strains; and against Streptococcus pneumoniae including penicillin-resistant strains; e.g. in the Agar Dilution Test or in the Micro Dilution Test in Mueller-Hinton agar or Mueller-Hinton broth with or without supplements according to the approved standard reference methods of the National Committee for Clinical Laboratory Standards (NCCLS), Document M7-A4 for aerobic bacteria.

[2] = tested on: Staphylococcus aureus MRSA; assay: as above
Source text: as §1, §2

[3] = tested on: penicillin-resistant Streptococcus pneumoniae; assay: as above
Source text: as §1, §2

[4] = tested on: Enterococcus faecalis strain ATCC 29212; assay: MIC in Agar Dilution Test or Microdilution Test; settings: examples tested in the form of an hydrochloride
Source text: as §1

SMILES: C=C[C@]1(C)C[C@@H](OC(=O)CSc2cccc(NC(=O)[C@H]3CCCCN3)c2)[C@]2(C)[C@H](C)CC[C@]3(CCC(=O)[C@H]32)[C@@H](C)[C@@H]1O [Example 1]
MIC [1]: ca. 0.025 μg/ml | MIC [2]: ≤ 0.0125 µg/mL

SMILES: C=C[C@]1(C)C[C@@H](OC(=O)CSc2cccc(N)c2)[C@]2(C)[C@H](C)CC[C@]3(CCC(=O)[C@H]32)[C@@H](C)[C@@H]1O [Example 52, 14-O-[(3-Amino-phenylsulfanyl)acetyl]mutilin]
MIC [1]: ca. 0.025 μg/ml

MIC ([1]; read-out: MIC): ~1.6 µg/mL (≈ 2.14 µM) | MIC ([2]; read-out: MIC): > 25.6 µg/mL | MIC [3]: > 2.56 µg/mL
SMILES: CC[C@H]1OC(=O)[C@H](C)[C@@H](O[C@H]2C[C@@](C)(OC)[C@@H](O)[C@H](C)O2)[C@H](C)[C@@H](O[C@@H]2O[C@H](C)C[C@H](N(C)C)[C@H]2O)[C@](C)(O)C[C@@H](C)CN(C)[C@H](C)[C@@H](O)[C@]1(C)O [azithromycin]

MIC [4]: ca. 1.6 μg/ml
SMILES: CC[C@H]1OC(=O)[C@H](C)[C@@H](O[C@H]2C[C@@](C)(OC)[C@@H](O)[C@H](C)O2)[C@H](C)[C@@H](O[C@@H]2O[C@H](C)C[C@H](N(C)C)[C@H]2O)[C@](C)(O)C[C@@H](C)C(=O)[C@H](C)[C@@H](O)[C@]1(C)O [erythromycin A]
